Data reported in ChEMBL document CHEMBL4020759, “Sulfoximines as ATR inhibitors: Analogs of VE-821” (2017).

How the values were obtained:
Assay type in all cases: functional
K562 = test: Growth inhibition of human K562 cells assessed as cell growth at 10 uM incubated for 48 hrs by sulforhodamine B assay; settings: K562, 48 h, read-out: Activity
NCI-H23 = test: Growth inhibition of human NCI-H23 cells assessed as cell growth at 10 uM incubated for 48 hrs by sulforhodamine B assay; settings: NCI-H23, 48 h, read-out: Activity
OVCAR-4 = test: Growth inhibition of human OVCAR4 cells assessed as cell growth at 10 uM incubated for 48 hrs by sulforhodamine B assay; settings: OVCAR-4, 48 h, read-out: Activity

| Compound | growth at 10 µM (K562) | growth at 10 µM (NCI-H23) | growth at 10 µM (OVCAR-4) |
| --- | --- | --- | --- |
| CS(=O)(=NC#N)c1ccc(-c2cnc(N)c(C(=O)Nc3ccccc3)n2)cc1 (stereo unspecified) | 70.8% | 81.2% | 97% |
| C/S(=N\C#N)c1ccc(-c2cnc(N)c(C(=O)Nc3ccccc3)n2)cc1 (stereo unspecified) | 62.2% | 98.2% | 87.3% |
